The target in assay [1] is Angiotensin-converting enzyme (Homo sapiens, UniProt P12821). Nature of the assay: Inhibition of Angiotensin I converting enzyme. The conditions noted are these: read-out: I50.
The target of a further assay is Neprilysin (Homo sapiens, UniProt P08473). Briefly: Inhibition of Neutral Endopeptidase (NEP). The conditions noted are these: read-out: I50.
Assay [2] relates to Rattus norvegicus. Briefly: Compound was tested in vivo for inhibition of Angiotensin I(AI) induced pressor response in normotensive rat after iv administration. Format: functional.
Assay [3] concerns Rattus norvegicus. Briefly: Maximal percentage inhibition of Angiotensin I(AI) induced pressor response in normotensive rat at 0.15 (umol/kg) (iv). It is filed as functional.

The term ED50 denotes the midpoint of the dose-response relation. Low values mean greater potency, high ones weaker potency. Usually Inhibition stands for the drop in the measured response relative to a control, in per cent. A high value points to a strong effect.

pIC50: −log10 of the molar value.

Neprilysin, sequence (P08473 whole entry): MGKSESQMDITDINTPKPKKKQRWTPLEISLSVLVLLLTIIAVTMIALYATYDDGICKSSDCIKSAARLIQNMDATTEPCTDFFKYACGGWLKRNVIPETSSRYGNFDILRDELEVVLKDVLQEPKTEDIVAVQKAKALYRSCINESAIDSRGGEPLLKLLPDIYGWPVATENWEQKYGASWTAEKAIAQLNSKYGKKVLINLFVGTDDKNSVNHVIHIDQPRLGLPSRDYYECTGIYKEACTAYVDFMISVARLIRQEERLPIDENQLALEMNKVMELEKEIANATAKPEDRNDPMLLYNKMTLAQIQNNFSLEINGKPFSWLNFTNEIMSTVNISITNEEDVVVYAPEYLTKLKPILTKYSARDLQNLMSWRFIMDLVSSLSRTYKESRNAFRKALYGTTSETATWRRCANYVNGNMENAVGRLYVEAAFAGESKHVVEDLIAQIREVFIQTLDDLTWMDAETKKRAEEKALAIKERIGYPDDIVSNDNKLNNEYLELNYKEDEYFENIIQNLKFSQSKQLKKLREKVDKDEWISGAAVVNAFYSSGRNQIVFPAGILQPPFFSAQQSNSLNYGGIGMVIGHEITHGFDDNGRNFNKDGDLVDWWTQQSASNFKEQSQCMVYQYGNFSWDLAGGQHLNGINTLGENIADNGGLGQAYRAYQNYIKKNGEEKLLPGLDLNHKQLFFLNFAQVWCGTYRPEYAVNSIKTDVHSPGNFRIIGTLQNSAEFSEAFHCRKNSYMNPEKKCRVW
Angiotensin-converting enzyme, sequence (P12821 whole entry): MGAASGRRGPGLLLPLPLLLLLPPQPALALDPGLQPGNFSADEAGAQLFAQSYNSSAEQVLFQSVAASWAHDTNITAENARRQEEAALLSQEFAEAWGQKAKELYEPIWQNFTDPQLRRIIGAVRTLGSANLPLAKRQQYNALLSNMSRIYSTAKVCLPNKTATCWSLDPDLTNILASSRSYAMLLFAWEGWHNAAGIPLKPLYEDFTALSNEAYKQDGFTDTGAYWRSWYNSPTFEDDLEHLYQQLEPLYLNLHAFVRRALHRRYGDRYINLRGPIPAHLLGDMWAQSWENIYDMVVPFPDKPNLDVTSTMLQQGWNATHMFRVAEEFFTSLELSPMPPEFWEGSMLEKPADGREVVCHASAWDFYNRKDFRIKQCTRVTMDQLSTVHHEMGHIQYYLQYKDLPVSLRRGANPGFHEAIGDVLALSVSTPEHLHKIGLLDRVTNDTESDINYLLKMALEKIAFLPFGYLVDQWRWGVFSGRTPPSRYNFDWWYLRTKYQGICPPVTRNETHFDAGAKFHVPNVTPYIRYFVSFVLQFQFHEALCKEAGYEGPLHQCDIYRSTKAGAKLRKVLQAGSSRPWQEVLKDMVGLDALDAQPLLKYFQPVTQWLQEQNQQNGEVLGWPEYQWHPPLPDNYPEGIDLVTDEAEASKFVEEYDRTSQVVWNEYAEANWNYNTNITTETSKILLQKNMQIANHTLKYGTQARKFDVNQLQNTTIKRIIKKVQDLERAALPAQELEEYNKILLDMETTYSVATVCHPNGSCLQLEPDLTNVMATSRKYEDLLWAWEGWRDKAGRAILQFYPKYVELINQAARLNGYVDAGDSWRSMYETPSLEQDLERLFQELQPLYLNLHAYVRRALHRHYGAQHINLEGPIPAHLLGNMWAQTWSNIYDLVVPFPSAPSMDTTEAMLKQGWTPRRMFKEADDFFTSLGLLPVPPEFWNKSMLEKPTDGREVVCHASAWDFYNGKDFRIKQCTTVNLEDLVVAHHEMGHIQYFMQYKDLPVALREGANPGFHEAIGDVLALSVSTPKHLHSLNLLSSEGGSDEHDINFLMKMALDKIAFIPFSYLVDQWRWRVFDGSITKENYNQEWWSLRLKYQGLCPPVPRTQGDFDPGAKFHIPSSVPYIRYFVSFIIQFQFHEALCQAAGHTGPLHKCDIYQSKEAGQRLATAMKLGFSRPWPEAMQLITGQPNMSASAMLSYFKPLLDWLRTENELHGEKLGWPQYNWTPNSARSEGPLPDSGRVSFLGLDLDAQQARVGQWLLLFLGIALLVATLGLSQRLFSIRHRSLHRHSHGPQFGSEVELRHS

Take `CC(S)(Cc1ccccc1)C(=O)N[C@H]1CCc2ccccc2N(CC(=O)O)C1=O` (stereo in doubt; form 2): the pIC50 in assay [1] is 7.20; at Neprilysin it was 5.70.

`O=C(O)CN1C(=O)[C@@H](NC(=O)[C@@H](S)Cc2ccccc2)CCc2ccccc21` displayed an ED50 in the assay with Rattus norvegicus [2] of 0.02 µmol/kg. Besides, the pIC50 on Neprilysin was 8.22.

As for `O=C(O)CN1CCCC[C@H](NC(=O)[C@@H](S)Cc2ccccc2)C1=O`, the results for the pIC50 (in assay [1]; on Neprilysin) were 7.66 and 7.09, respectively. The compound also registered an ED50 in the assay with Rattus norvegicus [2] of 0.83 µmol/kg.

As for `CCCC[C@H](S)C(=O)N[C@H]1CCc2ccccc2N(CC(=O)O)C1=O`, the pIC50 in assay [1] was 8.27; at Neprilysin, 7.44. The ED50 in the assay with Rattus norvegicus [2] was found to be 0.06 µmol/kg.

As for `O=C(O)CN1Cc2ccccc2C[C@H](NC(=O)[C@@H](S)Cc2ccccc2)C1=O`, the pIC50 was 7.48 in assay [1] and 6.76 at Neprilysin.

`C[C@H](NC(=O)[C@@H](S)Cc1ccccc1)C(=O)N(CC(=O)O)c1ccccc1`: the pIC50 in assay [1] was 7.85; on Neprilysin it was 6.86. Besides, the ED50 in the assay with Rattus norvegicus [2] was found to be 0.15 µmol/kg. Besides, the Inhibition with Rattus norvegicus [3] worked out at 42%.

With `CC(S)(Cc1ccccc1)C(=O)N[C@H]1CCc2ccccc2N(CC(=O)O)C1=O` (stereo in doubt; form 1), the pIC50 is 6.74 in assay [1] and 6.06 on Neprilysin.

`O=C(O)CN1C(=O)[C@@H](NC(=O)[C@@H](S)CC2CCCCC2)CCc2ccccc21`: the pIC50 in assay [1] is 7.66; at Neprilysin, 5.37.

Take `C[C@H](S)C(=O)N[C@H]1CCc2ccccc2N(CC(=O)O)C1=O`: the pIC50 in assay [1] was 7.62; at Neprilysin, 5.73.

Turning to `O=C(O)CN1C(=O)[C@H](NC(=O)[C@@H](S)Cc2ccccc2)CCc2ccccc21`, the pIC50 in assay [1] is 6.51; on Neprilysin, 6.25.

Regarding `O=C(O)CN1C(=O)C(NC(=O)[C@@H](S)Cc2ccccc2)CCCc2ccccc21` (stereo partly specified), the figures for the pIC50 (in assay [1]; on Neprilysin) were 7.60 and 5.95, respectively.

With `O=C(O)CN1C(=O)[C@@H](NC(=O)[C@H](S)Cc2ccccc2)CCc2ccccc21`, the pIC50 in assay [1] is 6.55; on Neprilysin it was 7.85.

In the case of `CC(C)C[C@H](S)C(=O)N[C@H]1CCc2ccccc2N(CC(=O)O)C1=O`, the pIC50 in assay [1] was 8.20; on Neprilysin, 8.15. This compound also gave an ED50 with Rattus norvegicus [2] of 0.23 µmol/kg.

These data come from ChEMBL document CHEMBL1152108, “Dual metalloprotease inhibitors. II. Effect of substitution and stereochemistry on benzazepinone based mercaptoacetyls” (Bioorg Med Chem Lett, 1994).
